Data taken from ChEMBL document CHEMBL3352544, “Screening and identification of novel compounds with potential anti-proliferative effects on gallium-resistant lung cancer through an AXL kinase pathway” (Bioorg Med Chem Lett, 2014).
Activity calls are given as the source filed them. The calls are words filed in the database; no cut-off is given here.

Assays:
Assay type in all cases: functional, cell-based
A549 [1] = experiment: Antiproliferative activity against gallium-sensitive human A549 cells after 48 hrs by MTT assay; details: A549, 48 h
A549 [2] = experiment: Antiproliferative activity against gallium-resistant human A549 cells after 48 hrs by MTT assay; details: A549, 48 h
A549 [3] = experiment: Potentiation of gallium acetylacetonate-induced antiproliferative activity against gallium-sensitive human A549 cells at 0.25 uM after 48 hrs by MTT assay
A549 [4] = experiment: Potentiation of gallium acetylacetonate-induced antiproliferative activity against gallium-resistant human A549 cells at 0.25 uM after 48 hrs by MTT assay
A549 [5] = experiment: Potentiation of gallium acetylacetonate-induced antiproliferative activity against gallium-resistant human A549 cells assessed as allium acetylacetonate IC50 at 0.25 uM after 48 hrs by MTT assay; details: A549, 48 h
A549 [6] = experiment: Effect on AXL protein expression in gallium-sensitive human A549 cells at 50 uM fter 48 hrs by immunofluorescence assay
A549 [7] = experiment: Reduction in AXL protein expression in gallium-resistant human A549 cells at 50 uM fter 48 hrs by immunofluorescence assay

| IC50 (A549 [1]) [µM] | IC50 (A549 [2]) [µM] | IC50 (A549 [5]) [µM] | Structure (SMILES) | Activity (A549 [3]) | Activity (A549 [4]) | Activity (A549 [6]) | Activity (A549 [7]) |
| --- | --- | --- | --- | --- | --- | --- | --- |
| 3.6 | 2.8 | 102 | Oc1c(CN2CCN(Cc3ccc4cccnc4c3O)CC2)ccc2cccnc12 | inactive | Active | inactive | Active |
| 8.6 | 17.4 | 199 | O=C(CSc1nnnn1-c1cccc2ccccc12)c1ccc(O)c(O)c1 | inactive | Active | inactive | Active |
